Source: patent US7671039B2 (Glucan Corporation, priority 2004, dated 2010)
Marks after values point to notes of the source that are not given here.

What was measured:
[1] = FOSA group: Fosamax 10 mg/kg oral; I: body weight after sacrifice − after administration
Procedure: 25 ddY female mice (age of 6 weeks, SLC, Japan) are used after adaptation during 7 days. The above animals are grouped each 5 and bred in a cage made of polycarbonate under the condition of temperature of 20˜25° C. and humidity of 30˜35%. A cycle of light and darkness is controlled to 12 hours: 12 hours. Feed stuff (Samyang Co., Korea) and water is fed freely. For 20 mice, the both ovary is taken out (ovary extraction : disclosing the both ovary, and then removing all of the both ovary, and then suturing with the same method), and for 5 mice, only sham surgical operation is carried out (sham surgical operation disclosing the both ovary by cutting (3 cm) a skin and an abdominal muscle, and then closing using a skin suturing technique). For the purpose of therapeutic research, a treatment is started after 4 weeks of the ovary extraction, each sample is administrated during 4 weeks.
All sample is stored at a refrigerate (−10° C.) to prevent from a moisture and light. […]
Change of body weight and increasing part is calculated after immediately surgical operation, after 4 weeks of surgical operation, after administration, and each week one times during experiment period. […] Also, an increasing part of body weight during adapting period (Increasing part I) and administrating period (Increasing part II) is calculated as followings. […]

[2] = test system: ddY female mice with ovary extraction; assay: Histomorphometric changes of left thigh, Hematoxylin-Eosin dyeing; format: in vivo
Procedure: (§1) For histological analysis of experimental animals, the left thigh of each mouse is separated to fix in 10% neutral buffer formalin (NBF) solution, and then delimed during 5 days at delime solution [24.4% formic acid, […]] (the mixed delime solution is exchanged each day one times during 3 days). And then it is fixed to paraffin and then made fraction ([…]) and dyed with hematoxylineosin.
A histomorphometric change of left thigh is analyzed by dyeing with Hematoxylin-Eosin.

[3] = test system: ddY female mice with ovary extraction; assay: Weight of bone of both thighs in ovary-extracted mice; format: in vivo; conditions: wet weight, FOSA group: Fosamax 10 mg/kg oral, 4 weeks
Procedure: After sacrifice, a weight of bone of both thighs is calculated with g unit. To reduce an error arising from a difference of individual body weight, a weight of bone is calculated with relative weight as following equation. Weight of bone=[(absolute weight of bone/body weight at sacrifice)×100]

[4] = test system: ddY female mice with ovary extraction; assay: Histological indices of trabecular and cortical bone of thigh in ovary-extracted mice; format: in vivo; conditions: FOSA group: Fosamax 10 mg/kg oral, 4 weeks
Text: as §1
Body weight, weight of both thigh, histological change including trabecular bone volume (TBV) % and Cortical bone thickness (Cbt) is analyzed. Also, histomorphometric changes of the trochoid bone of left thigh are observed. All experimental result of followings are shown with means±standard deviation. A statistical analysis is carried out by using SPSS For Windows (Release 6.1.3., SPSS Inc, USA) and Mann-Whitney U-Wilcoxon Rank Sum W test(M-W test).
TBV is calculated by using a Auto Image analysis (analySIS Image Processing; SIS, Germany) under 100 magnifications on a microscope (Zeiss, Germany) for regular size of trabecular bone at the trochoid bone of […] (excluding a growth plate). TBV is calculated with (%) unit.
A trabecular bone thickness (Tbt), a number of trabecular bone (Tbn), and a trabecular bone length (Tbl) are calculated by using a Auto Image analysis (analySIS Image Processing; SIS, Germany) under 100 magnifications on a microscope (Zeiss, Germany) for regular size at the trochoid bone of left thigh (excluding a growth plate). Tbt and Tbl are calculated with μm unit, and Tbn is calculated with a number of trabecular bone/all section of the trochoid bone section. Tbt and Tbl is calculated at trabecular bone that is most developed in a regular size of the trochoid bone section.
Cbt is measured at the trochlea neck of thigh and calculated by using a Auto Image analysis (analySIS Image Processing; SIS, Genmany) under 200 magnifications on a microscope (Zeiss, Germany) at prepared histological sample.

SMILES: NCCCC(O)(P(=O)(O)O)P(=O)(O)O [FOSA, sodium alendronate]
- Increasing part II of body weight [1]: 3.26 ± 2.73
- histomorphometric changes of trabecular bone of left thigh (FIG. 3) ([2]; Fosamax and beta-glucan groups compared with control group, width or number lower than sham group): many an extended trabecular bone
- histomorphometric changes of cortical bone of left thigh (FIG. 4) ([2]; Fosamax group, 10 mg/kg oral, 4 weeks): Some increased or similar width and histomorphometric property comparing with control group
- Absolute weight of bone [3]: 0.075 ± 0.006 g
- Tbn number of trabecular bone ([4]; control 3.40 ± 1.14): 15.20 ± 2.77
- Tbt(μm) trabecular bone thickness ([4]; control 66.40 ± 11.70): 93.60 ± 9.56 μm
- Cbt(μm) Cortical bone thickness ([4]; control 99.20 ± 20.46): 102.50 ± 22.29 μm
- Tbl(μm) trabecular bone length ([4]; control 524.40 ± 176.78): 759.40 ± 89.17*^,## μm
- TBV (%) trabecular bone volume ([4]; n = 5, control 20.23 ± 1.72, sham 47.31 ± 5.95): 35.13 ± 4.28%
